ChEMBL document CHEMBL4725335, “Deciphering the robustness of pyrazolo-pyridine carboxylate core structure-based compounds for inhibiting α-synuclein in transgenic C. elegans model of Synucleinopathy” (Bioorg Med Chem, 2020)
Activity calls are given as the source filed them. The rule behind the calls is not given here.

Key:
[1] = biological target: Alpha-synuclein (Homo sapiens) (UniProt P37840); test: Inhibition of human alpha-synuclein aggregation expressed in transgenic Caenorhabditis elegans NL5901 assessed as decrease in alpha-synuclein expression at 1% after 48 hrs by fluorescence microscopy analysis
[2] = biological target: Alpha-synuclein (Homo sapiens) (UniProt P37840); test: Inhibition of human alpha-synuclein aggregation expressed in transgenic Caenorhabditis elegans NL5901 by measuring fluorescence intensity at 1% incubated for 48 hrs by fluorescence microscopy analysis relative to control

inhibition [1] | fold change (FC) [2] | inhibition [2] | Structure (SMILES)
Active | – | 31.9% | CCOC(=O)c1cnc2c(cnn2-c2ccccc2)c1N1CCN(c2cc(C)nc3ncnn23)CC1
Active | 2.4 | 53% | CCOC(=O)c1cnc2c(cnn2-c2ccccc2)c1N1CCN(C)CC1
Active | – | 13.5% | CCOC(=O)c1cnc2c(cnn2-c2ccc(F)c(F)c2)c1N1CCN(c2ncccc2C#N)CC1
Active | 1.7 | 39.2% | CCOC(=O)c1cnc2c(cnn2-c2ccccc2)c1N1CCN(c2ccnc3cc(Cl)ccc23)CC1
Active | – | 14.7% | CCOC(=O)c1cnc2c(cnn2-c2ccccc2)c1N1CCN(c2cc(=O)[nH]c3ccccc23)CC1
Active | – | 33.1% | CCOC(=O)c1cnc2c(cnn2-c2ccccc2)c1N1CCN(c2ncccc2C#N)CC1
Active | – | 26.1% | CCOC(=O)c1cnc2c(cnn2-c2ccccc2F)c1N1CCN(c2ncccc2C#N)CC1
Active | – | 27.3% | CCOC(=O)c1cnc2c(cnn2-c2cccc(C(F)(F)F)c2)c1N1CCN(c2ncccc2C#N)CC1

Further lines, the molecule ahead of its results:

Structure (SMILES) | inhibition [1] | fold change (FC) [2] | inhibition [2]
CCOC(=O)c1cnc2c(cnn2-c2ccccc2)c1N1CCCCC1 | Active | 1.5 | 47.7%
CCOC(=O)c1cnc2c(cnn2-c2ccccc2)c1N1CCOCC1 | Active | – | 30.2%
CCOC(=O)c1cnc2c(cnn2-c2ccccc2)c1N1CCN(S(=O)(=O)c2ccc(NC(C)=O)cc2)CC1 | Active | – | 17.7%
CCOC(=O)c1cnc2c(cnn2-c2ccccc2)c1Oc1cccc2cccnc12 | Active | – | 24.4%
CCOC(=O)c1cnc2c(cnn2-c2ccccc2)c1N1CCN(c2cc(C(F)(F)F)nc3ncnn23)CC1 | Active | – | 14.1%
